# Data taken from patent US9969775B2, “CGRP antagonist peptides” (Ferring B.V., priority 2015, dated 2018).
# pIC50: −log10 of the molar value. Numbered stars: 1 amine (or outer) side, 2 acyl side, 3 side chain; on linkers, the order of the positions; unused ones are H or OH. Bridge positions count the residues as written; N and C are the ends. Square brackets hold non-standard residues; d marks the D form. Peptide text beside a SMILES is read from it. * marks the point of attachment. Phe(3-CH2NH2) = O=C([C@H](Cc1cccc(CN[*:3])c1)N[*:1])[*:2]; Phe(4-NHCONH2) = NC(=O)Nc1ccc(C[C@H](N)C(=O)O)cc1; Phe(3-CONH2) = NC(=O)c1cccc(C[C@H](N)C(=O)O)c1; Phe(2-CONH2) = NC(=O)c1ccccc1C[C@H](N)C(=O)O; X5 = O=C([C@H](Cc1ccc(CO)cc1)N[*:1])[*:2]; Triazol3yl(1,2,4-5-NH2) = Nc1nc(*)n[nH]1; X14 = CCN(CC)CCC[C@H](N[*:1])C(=O)[*:2]; Imidazole4carbonyl = O=C(c1cnc[nH]1)*; Picolinoyl(5-F) = O=C(c1ccc(F)cn1)*; Orn(iPr) = CC(C)NCCC[C@H](N)C(=O)O; Orn(Me2) = CN(C)CCC[C@H](N)C(=O)O; Benzoyl(4-F) = O=C(c1ccc(F)cc1)*; Oxazole2carbonyl = O=C(c1ncco1)*; 3Pal = N[C@@H](Cc1cccnc1)C(=O)O; Picolinoyl = O=C(c1ccccn1)*; ΔPro = O=C(O)[C@@H]1C=CCN1; Orn = NCCC[C@H](N)C(=O)O; Dap = NC[C@H](N)C(=O)O; X1 = O=C(c1ncccc1F)*; X10 = O=C(c1nccs1)*
# Columns and labels:
# [1] = target: T1, hCGRP receptor (CALCRL:RAMP1) (Homo sapiens, UniProt O60894+Q16602); test: CGRP receptor antagonist activity measured by cAMP assay (HTRF); format: cell-based; details: agonist human α-CGRP; for Emax: % MPE: percent of the maximal possible effect, read-out: hCGRP-R Efficacy Antag (%) Ave; for pIC50: GeneBLAzer CALCRL:RAMP1-CRE-bla Freestyle 293F cells, 30 minutes, read-out: hCGRP-R IC50 Ave
# T1 construct: host or cells: GeneBLAzer CALCRL:RAMP1-CRE-bla Freestyle 293F
# [2] = target: T2, hAM2 receptor (CALCRL:RAMP3) (Homo sapiens, UniProt O60896+Q16602); test: AM2 receptor antagonist activity measured by cAMP assay (HTRF); format: cell-based; details: for Emax: % MPE: percent of the maximal possible effect, read-out: hAM2-R Efficacy Antag (%) Ave; for Emax / pIC50: agonist human adrenomedullin; for pIC50: GeneBLAzer CALCRL:RAMP3-CRE-bla Freestyle 293F cells, read-out: hAM2-R IC50 Ave; for selectivity ratio CGRP/AM2: selectivity ratio for hCGRP over hAM2, calculated from the IC50 values
# T2 construct: expressed in transfected cells; host or cells: GeneBLAzer CALCRL:RAMP3-CRE-bla Freestyle 293F
# T2 sequence (Q16602 23-461): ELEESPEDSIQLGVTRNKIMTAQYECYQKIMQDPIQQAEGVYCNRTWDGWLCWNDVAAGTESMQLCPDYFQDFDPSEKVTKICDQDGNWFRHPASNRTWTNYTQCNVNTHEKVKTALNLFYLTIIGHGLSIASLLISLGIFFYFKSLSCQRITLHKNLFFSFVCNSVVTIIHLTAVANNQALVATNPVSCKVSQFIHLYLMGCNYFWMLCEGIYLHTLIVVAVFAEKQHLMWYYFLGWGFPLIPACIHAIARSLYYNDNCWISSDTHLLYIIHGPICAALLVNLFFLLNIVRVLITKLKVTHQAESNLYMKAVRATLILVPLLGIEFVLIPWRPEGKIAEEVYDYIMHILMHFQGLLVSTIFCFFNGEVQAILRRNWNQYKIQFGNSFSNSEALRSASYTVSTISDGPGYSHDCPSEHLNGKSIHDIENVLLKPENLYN
# T2 sequence (O60896 24-148): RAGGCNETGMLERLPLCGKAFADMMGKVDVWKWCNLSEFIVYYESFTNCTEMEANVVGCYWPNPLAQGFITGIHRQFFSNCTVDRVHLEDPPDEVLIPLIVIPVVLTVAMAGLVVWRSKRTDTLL
# Description: Antagonist activity for the adrenomedullin receptor AM2 was determined using the method described in Example 6 above, with the following modifications. Instead of GeneBLAzer® CALCRL:RAMP1-CRE-bla Freestyle™ 293F cells, GeneBLAzer® CALCRL:RAMP3-CRE-bla Freestyle™ 293F cells were used to test activity at hAM2 receptors. The agonist was human adrenomedullin, instead of α-CGRP.
# In Table 5, the selectivity ratio for hCGRP over hAM2 is calculated as hCGRP-R IC50/hAM2-R IC50.
# T1 sequence (Q16602 23-461): as the sequence (Q16602 23-461) above
# T1 sequence (O60894 27-148): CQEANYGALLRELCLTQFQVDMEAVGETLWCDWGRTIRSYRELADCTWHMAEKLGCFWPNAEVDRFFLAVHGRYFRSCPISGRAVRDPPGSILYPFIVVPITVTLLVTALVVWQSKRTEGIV
Emax [1],pIC50 [1],Emax [2],pIC50 [2],selectivity ratio CGRP/AM2 [2],Compound
100%,9.77,100%,6.42,2295,CC(C)[C@@H]1NC(=O)[C@H](CC(=O)O)NC(=O)[C@H](CCCNC(=N)N)NC(=O)[C@@H](NC(=O)[C@H](Cc2ccc(O)cc2)NC(=O)[C@H](NC(=O)c2cnc[nH]2)C(C)C)CSSC[C@@H](C(=O)N[C@@H](Cc2cccnc2)C(N)=O)NC(=O)[C@H](Cc2ccccc2)NC(=O)[C@@H]2CCCN2C(=O)CNC1=O [Compound 37] (Imidazole4carbonyl-[dV]YCRDVGPFC[3Pal]-NH2; disulfide 3-10)
100%,9.77,99%,6.82,898,"CC(C)NCCC[C@@H]1NC(=O)[C@@H](NC(=O)[C@H](Cc2ccccc2C(N)=O)NC(=O)[C@H](NC(=O)c2ccccn2)C(C)C)CSSC[C@@H](C(=O)N[C@@H](Cc2cccnc2)C(N)=O)NC(=O)[C@H](Cc2cccc(CN)c2)NC(=O)[C@@H]2C=CCN2C(=O)CNC(=O)[C@H](C(C)C)NC(=O)[C@H](CC(=O)O)NC1=O [Compound 54, Picolinoyl-D-Val-Phe(2-Cbm)-c(Cys-Orn(iPr)-Asp-Val-Gly-Dhp-Phe(3-CH2NH2)-Cys)-3Pal-NH2] (Picolinoyl-[dV][Phe(2-CONH2)]C[Orn(iPr)]DVG[ΔPro][Phe(3-CH2NH2)]C[3Pal]-NH2; disulfide 3-10)"
100%,9.89,108%,7.60,198,"CC(C)[C@@H]1NC(=O)[C@H](CC(=O)O)NC(=O)[C@H](CCCNC(=N)N)NC(=O)[C@@H](NC(=O)[C@H](Cc2ccc(O)cc2)NC(=O)[C@H](NC(=O)c2ncco2)C(C)C)CSSC[C@@H](C(=O)N[C@@H](Cc2cccnc2)C(N)=O)NC(=O)[C@H](Cc2cccnc2)NC(=O)[C@@H]2CCCN2C(=O)CNC1=O [Compound 11, Oxazole-2-carbonyl-D-Val-Tyr-c(Cys-Arg-Asp-Val-Gly-Pro-3Pal-Cys)-3Pal-NH2] (Oxazole2carbonyl-[dV]YCRDVGP[3Pal]C[3Pal]-NH2; disulfide 3-10)"
100%,10.10,100%,7.35,555,"CC(C)[C@@H]1NC(=O)[C@H](CC(=O)O)NC(=O)[C@H](CCCNC(=N)N)NC(=O)[C@@H](NC(=O)[C@H](Cc2ccc(O)cc2)NC(=O)[C@H](NC(=O)c2ccc(F)cc2)C(C)C)CSSC[C@@H](C(=O)N[C@@H](Cc2cccnc2)C(N)=O)NC(=O)[C@H](Cc2cccnc2)NC(=O)[C@@H]2CCCN2C(=O)CNC1=O [Compound 2, Bz(4-F)-D-Val-Tyr-c(Cys-Arg-Asp-Val-Gly-Pro-3Pal-Cys)-3Pal-NH2] ({Benzoyl(4-F)}-[dV]YCRDVGP[3Pal]C[3Pal]-NH2; disulfide 3-10)"
100%,9.89,100%,7.19,497,"CC(C)NCCC[C@@H]1NC(=O)[C@@H](NC(=O)[C@H](Cc2ccc(O)cc2)NC(=O)[C@H](NC(=O)c2ccccn2)C(C)C)CSSC[C@@H](C(=O)N[C@@H](Cc2cccnc2)C(N)=O)NC(=O)[C@H](Cc2ccc(CO)cc2)NC(=O)[C@@H]2C=CCN2C(=O)CNC(=O)[C@H](C(C)C)NC(=O)[C@H](CC(=O)O)NC1=O [Compound 69, Picolinoyl-D-Val-Tyr-c(Cys-Orn(iPr)-Asp-Val-Gly-Dhp-Phe(4-CH2OH)-Cys)-3Pal-NH2] (Picolinoyl-[dV]YC[Orn(iPr)]DVG[ΔPro][X5]C[3Pal]-NH2; disulfide 3-10)"
100%,9.82,99%,6.74,1189,"CC(C)[C@@H]1NC(=O)[C@H](CC(=O)O)NC(=O)[C@H](CCCN(C)C)NC(=O)[C@@H](NC(=O)[C@H](Cc2ccc(O)cc2)NC(=O)[C@H](NC(=O)c2ncccc2F)C(C)C)CSSC[C@@H](C(=O)N[C@@H](Cc2cccnc2)C(N)=O)NC(=O)[C@H](Cc2ccccc2)NC(=O)[C@@H]2CCCN2C(=O)CNC1=O [Compound 46, Picolinoyl(3-F)-D-Val-Tyr-c(Cys-Orn(Me2)-Asp-Val-Gly-Pro-Phe-Cys)-3Pal-NH2] (X1-[dV]YC[Orn(Me2)]DVGPFC[3Pal]-NH2; disulfide 3-10)"
101%,10.00,98%,7.07,848,"CC(C)NCCC[C@@H]1NC(=O)[C@@H](NC(=O)[C@H](Cc2ccccc2C(N)=O)NC(=O)[C@H](NC(=O)c2ccc(F)cn2)C(C)C)CSSC[C@@H](C(=O)N[C@@H](Cc2cccnc2)C(N)=O)NC(=O)[C@H](Cc2ccc(CO)cc2)NC(=O)[C@@H]2C=CCN2C(=O)CNC(=O)[C@H](C(C)C)NC(=O)[C@H](CC(=O)O)NC1=O [Compound 63, Picolinoyl(5-F)-D-Val-Phe(2-Cbm)-c(Cys-Orn(iPr)-Asp-Val-Gly-Dhp-Phe(4-CH2OH)-Cys)-3Pal-NH2] ({Picolinoyl(5-F)}-[dV][Phe(2-CONH2)]C[Orn(iPr)]DVG[ΔPro][X5]C[3Pal]-NH2; disulfide 3-10)"
100%,9.77,113%,7.00,612,"CC(C)[C@@H]1NC(=O)[C@H](CC(=O)O)NC(=O)[C@H](CN)NC(=O)[C@@H](NC(=O)[C@H](Cc2ccc(O)cc2)NC(=O)[C@H](NC(=O)c2ccc(F)cc2)C(C)C)CSSC[C@@H](C(=O)N[C@@H](Cc2cccnc2)C(N)=O)NC(=O)[C@H](Cc2cccc(C(N)=O)c2)NC(=O)[C@@H]2CCCN2C(=O)CNC1=O [Compound 6, Bz(4-F)-D-Val-Tyr-c(Cys-Dpr-Asp-Val-Gly-Pro-Phe(3-Cbm)-Cys)-3Pal-NH2] ({Benzoyl(4-F)}-[dV]YC[Dap]DVGP[Phe(3-CONH2)]C[3Pal]-NH2; disulfide 3-10)"
100%,9.96,98%,6.89,1213,"CCN(CC)CCC[C@@H]1NC(=O)[C@@H](NC(=O)[C@H](Cc2ccc(O)cc2)NC(=O)[C@H](NC(=O)c2ccccn2)C(C)C)CSSC[C@@H](C(=O)N[C@@H](Cc2cccnc2)C(N)=O)NC(=O)[C@H](Cc2ccccc2)NC(=O)[C@@H]2CCCN2C(=O)CNC(=O)[C@H](C(C)C)NC(=O)[C@H](CC(=O)O)NC1=O [Compound 24, Picolinoyl-D-Val-Tyr-c(Cys-Orn(Et2)-Asp-Val-Gly-Pro-Phe-Cys)-3Pal-NH2] (Picolinoyl-[dV]YC[X14]DVGPFC[3Pal]-NH2; disulfide 3-10)"
100%,9.82,98%,6.92,765,"CC(C)[C@@H]1NC(=O)[C@H](CC(=O)O)NC(=O)[C@H](CCCNc2nc(N)n[nH]2)NC(=O)[C@@H](NC(=O)[C@H](Cc2ccc(O)cc2)NC(=O)[C@H](NC(=O)c2ccccn2)C(C)C)CSSC[C@@H](C(=O)N[C@@H](Cc2cccnc2)C(N)=O)NC(=O)[C@H](Cc2ccccc2)NC(=O)[C@@H]2CCCN2C(=O)CNC1=O [Compound 27, Picolinoyl-D-Val-Tyr-c(Cys-Orn(Atz)-Asp-Val-Gly-Pro-Phe-Cys)-3Pal-NH2] (Picolinoyl-[dV]YC[Orn](Triazol3yl(1,2,4-5-NH2))DVGPFC[3Pal]-NH2; disulfide 3-10)"
100%,9.92,100%,6.35,3759,"CC(C)NCCC[C@@H]1NC(=O)[C@@H](NC(=O)[C@H](Cc2ccccc2C(N)=O)NC(=O)[C@H](NC(=O)c2ncco2)C(C)C)CSSC[C@@H](C(=O)N[C@@H](Cc2cccnc2)C(N)=O)NC(=O)[C@H](Cc2ccc(NC(N)=O)cc2)NC(=O)[C@@H]2C=CCN2C(=O)CNC(=O)[C@H](C(C)C)NC(=O)[C@H](CC(=O)O)NC1=O [Compound 60, Oxazole-2-carbonyl-D-Val-Phe(2-Cbm)-c(Cys-Orn(iPr)-Asp-Val-Gly-Dhp-4Uph-Cys)-3Pal-NH2] (Oxazole2carbonyl-[dV][Phe(2-CONH2)]C[Orn(iPr)]DVG[ΔPro][Phe(4-NHCONH2)]C[3Pal]-NH2; disulfide 3-10)"
100%,10.00,100%,7.96,117,CC(C)[C@@H]1NC(=O)[C@H](CC(=O)O)NC(=O)[C@H](CCCNC(=N)N)NC(=O)[C@@H](NC(=O)[C@H](Cc2ccc(O)cc2)NC(=O)[C@H](NC(=O)c2nccs2)C(C)C)CSSC[C@@H](C(=O)N[C@@H](Cc2cccnc2)C(N)=O)NC(=O)[C@H](Cc2ccccc2)NC(=O)[C@@H]2CCCN2C(=O)CNC1=O [Compound 33] (X10-[dV]YCRDVGPFC[3Pal]-NH2; disulfide 3-10)
100%,,99%,,1460,CC(C)[C@@H]1NC(=O)[C@H](CC(=O)O)NC(=O)[C@H](CCCNC(=N)N)NC(=O)[C@@H](NC(=O)[C@H](Cc2ccc(O)cc2)NC(=O)[C@H](NC(=O)c2c[nH]cn2)C(C)C)CSSC[C@@H](C(=O)N[C@@H](Cc2cccnc2)C(N)=O)NC(=O)[C@H](Cc2ccccc2)NC(=O)[C@@H]2CCCN2C(=O)CNC1=O [Compound 47] (Imidazole4carbonyl-[dV]YCRDVGPFC[3Pal]-NH2; disulfide 3-10)
100%,,97%,,,"CC(C)[C@@H]1NC(=O)[C@H](CC(=O)O)NC(=O)[C@H](CCCNc2nc(N)n[nH]2)NC(=O)[C@@H](NC(=O)[C@H](Cc2ccccc2C(N)=O)NC(=O)[C@H](NC(=O)c2ncco2)C(C)C)CSSC[C@@H](C(=O)N[C@@H](Cc2cccnc2)C(N)=O)NC(=O)[C@H](Cc2cccnc2)NC(=O)[C@@H]2CCCN2C(=O)CNC1=O [Compound 52, Oxazole-2-carbonyl-D-Val-Phe(2-Cbm)-c(Cys-Orn(Atz)-Asp-Val-Gly-Pro-3Pal-Cys)-3Pal-NH2] (Oxazole2carbonyl-[dV][Phe(2-CONH2)]C[Orn](Triazol3yl(1,2,4-5-NH2))DVGP[3Pal]C[3Pal]-NH2; disulfide 3-10)"
